# Reference: PMC13013135, “[^99mTc]Tc-PSMA-HSG for PSMA-targeted Hybrid Surgical Guidance: a new addition to the PSMA-I&S/I&T family” (European Journal of Nuclear Medicine and Molecular Imaging, 2025)
# Like-named read-outs stand apart in the source and are kept apart here. Square brackets hold non-standard residues; d marks the D form. Peptide text beside a SMILES is read from it. * marks the point of attachment. X1 = O=C(O)CC[C@H](NC(=O)N[C@@H](CCCCNC(=O)CCCCCCC(=O)*)C(=O)O)C(=O)O; d2Nal = N[C@H](Cc1ccc2ccccc2c1)C(=O)O; Mercaptoacetyl = O=C(CS)*
# Tests used:
# [1] = patients; cited from earlier work
# mouse serum = experiment: Plasma protein binding (B50), ultrafiltration, mouse serum; format: in vitro ADME
# Experimental: (§1) A detailed experimental procedure is provided in the Supplementary Material. […] Briefly, protein solutions (maximum concentration: […] Samples were briefly vortexed and incubated for 30 min at 37 °C. […] The filter units were then removed from the centrifugal tubes and washed twice with 300 µL PBS to recover the protein fraction. The activity in the filtrate, filter and protein fraction were then quantified using a γ-counter. […] The percentages of radioligand bound to the respective proteins are represented as means ± standard deviation (SD) of three independent experiments.
# [2] = tested on: LNCaP xenograft bearing NSG mice; experiment: Biodistribution in LNCaP xenograft bearing NSG mice; settings: 6 h p.i., 0.1 nmol
# Experimental: The biodistribution of [^99mTc]Tc-PSMA-HSG and of the reference compound [^99mTc]Tc-PSMA-I&S was investigated in LNCaP xenograft bearing NSG mice (see supplemental information).
# Mice were injected intravenously with the respective ^99mTc-labeled tracer (24–34 MBq (fixed peptide dose of 1 nmol/mouse) or 3.7–7.6 MBq (fixed peptide doses of 0.1 nmol/mouse), respectively) and were sacrificed at 2 h (1 nmol-cohort) or 6 h p.i. (0.1 nmol-cohort), respectively. The organs of interest were dissected, and the activity concentration in weighed tissue samples was quantified using an AMG Automatic Gamma Counter (Hidex, Turku, Finland). Biodistribution data are given in %iD/g and represent means ± SD (groups of n = 5 animals). Statistical analysis (Multiple unpaired t-test) of biodistribution data and tumor/organ ratios was performed using GraphPad Prism (Boston, USA).
# To induce LNCaP tumor growth, a suspension of LNCaP cells (approx. 5 x 10^6 cells/mouse) in 200 μl of a 1:1 mixture of serum-free DMEM and Matrigel (BD Biosciences) was injected subcutaneously into the right shoulder of male NOD scid gamma (NSG) mice (6-8 weeks, in-house breeding, Dpt. of Oncology, University of Lausanne). After approximately 9 weeks, tumor size reached 4-8 mm in diameter and the mice were used for the in vivo studies.
# [3] = Lipophilicity, modified shake-flask method; format: physicochemical
# Experimental: The lipophilicity of [^99mTc]Tc-PSMA-HSG was determined via a modified shake-flask method as described.
# [4] = molecular target: human serum albumin (HSA) (Homo sapiens, UniProt P02768); experiment: Plasma protein binding (B50), ultrafiltration, HSA; format: in vitro ADME
# Experimental: as §1
# human serum = experiment: Plasma protein binding (B50), ultrafiltration, human serum; format: in vitro ADME
# Experimental: as §1
# [5] = tested on: PSMA expressing LNCaP cells; experiment: Dual tracer internalization assay; format: cell-based, human; settings: 60 min, 37 °C, 0.5 nM tracer, normalized to ([^125I]IBA)KuE
# Experimental: Competitive binding experiments (IC50) were carried out in accordance with an established protocol using PSMA-expressing LNCaP cells and ([^125I]I-BA)KuE as standard radioligand. […] Please see the Supplementary Material for experimental details. […] The supernatant was removed, cells were washed with assay medium, and an acid wash (50 mM NaOAc in saline, pH 4.5) was performed to remove membrane-associated activity. Cells were then lysed using 1N NaOH, and internalized activity was quantified using a γ-counter. […] Tocris Bioscience, Bristol, UK) and normalized to the specific internalization observed for the radioiodinated reference compound in the same experiment. Data represent means ± SD (n=3) from three separate determinations.
# Chain of human serum albumin (HSA) (P02768 25-609): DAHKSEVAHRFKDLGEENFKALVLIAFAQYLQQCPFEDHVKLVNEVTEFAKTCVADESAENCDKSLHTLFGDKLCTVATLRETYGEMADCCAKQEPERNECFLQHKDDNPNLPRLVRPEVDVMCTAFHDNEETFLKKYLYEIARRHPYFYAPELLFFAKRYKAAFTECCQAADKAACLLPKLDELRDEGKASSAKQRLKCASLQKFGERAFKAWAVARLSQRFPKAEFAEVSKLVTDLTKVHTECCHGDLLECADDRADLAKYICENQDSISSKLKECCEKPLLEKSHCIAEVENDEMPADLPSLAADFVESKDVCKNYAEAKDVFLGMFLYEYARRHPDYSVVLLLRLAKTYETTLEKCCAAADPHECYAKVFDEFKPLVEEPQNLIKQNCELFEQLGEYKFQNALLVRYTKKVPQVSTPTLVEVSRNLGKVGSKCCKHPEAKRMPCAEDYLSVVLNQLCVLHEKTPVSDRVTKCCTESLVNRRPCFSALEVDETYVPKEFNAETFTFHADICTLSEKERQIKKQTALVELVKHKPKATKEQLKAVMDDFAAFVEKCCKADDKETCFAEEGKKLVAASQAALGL
structure (smiles),measurement,setting,value
"O=C(O)CC[C@H](NC(=O)N[C@@H](CCCCNC(=O)CCCCCCC(=O)NCCCC[C@@H](NC(=O)[C@@H](Cc1ccc2ccccc2c1)NC(=O)[C@@H](Cc1ccc(O)cc1)NC(=O)[C@@H](CO)NC(=O)[C@@H](CO)NC(=O)[C@@H](CO)NC(=O)CS)C(=O)O)C(=O)O)C(=O)O [[^99mTc]Tc-PSMA-I&S, [^99mTc]Tc-mas3-y-nal-k-Sub-KuE, metal not drawn, reference compound] (Mercaptoacetyl-[dS][dS][dS][dY][d2Nal][dK](X1)-OH)",absorbed dose coefficient of the urinary bladder wall,[1],0.000355 mGy/MBq
same,effective dose,[1],0.0052 mSv/MBq
same,kidney absorbed dose coefficient,[1],0.0733 mGy/MBq
same,salivary gland absorbed dose coefficient,[1],0.0221 mGy/MBq
same,B50 MS,"mouse serum; mouse serum, molar excess of protein over radioligand for half-maximal binding, n = 3",652 ± 77
same,"biodistribution, LNCaP tumor",[2],12.9 ± 1.4 %iD/g
same,"biodistribution, blood",[2],0.15 ± 0.03 %iD/g
same,"biodistribution, heart",[2],0.24 ± 0.05 %iD/g
same,"biodistribution, intestines",[2],1.8 ± 0.8 %iD/g
same,"biodistribution, kidneys",[2],147.0 ± 10 %iD/g
same,"biodistribution, liver",[2],0.8 ± 0.4 %iD/g
same,"biodistribution, lung",[2],2.2 ± 0.2 %iD/g
same,"biodistribution, muscle",[2],0.2 ± 0.04 %iD/g
same,"biodistribution, pancreas",[2],0.7 ± 0.1 %iD/g
same,"biodistribution, salivary glands",[2],3.2 ± 0.8 %iD/g
same,"biodistribution, spleen",[2],14.2 ± 2.0 %iD/g
same,"biodistribution, stomach",[2],0.3 ± 0.1 %iD/g
same,lipophilicity [logD],[3],−3.01
same,B50 HSA,"[4]; HSA in PBS, molar excess of protein over radioligand for half-maximal binding, n = 3",324 ± 6
same,B50 HS,"human serum; human serum, molar excess of protein over radioligand for half-maximal binding, n = 3",321 ± 18
"CC[N+]1=C(/C=C/C=C/C=C/C=C2/N(CCCCCC(=O)NCCCC[C@@H](NC(=O)[C@@H](CO)NC(=O)[C@@H](CO)NC(=O)[C@@H](CO)NC(=O)CS)C(=O)N[C@H](Cc3ccc(O)cc3)C(=O)N[C@H](Cc3ccc4ccccc4c3)C(=O)N[C@H](CCCCNC(=O)CCCCCCC(=O)NCCCC[C@H](NC(=O)N[C@@H](CCC(=O)O)C(=O)O)C(=O)O)C(=O)O)c3ccc(S(=O)(=O)[O-])cc3C2(C)C)C(C)(C)c2cc(S(=O)(=O)O)ccc21 [[^99mTc]Tc-PSMA-HSG-Cy7-II, metal not drawn]",B50 MS,mouse serum,53 ± 7
same,internalization [% of reference],[5],28 ± 7 % of reference
same,logD,[3],-2.71
same,B50 HSA,[4],149 ± 14
same,B50 HS,human serum,121 ± 16
"C[N+]1=C(/C=C/C2=CC(=C/C=C3/N(CCCCCC(=O)NCCCC[C@@H](NC(=O)[C@@H](CO)NC(=O)[C@@H](CO)NC(=O)[C@@H](CO)NC(=O)CS)C(=O)N[C@H](Cc4ccc(O)cc4)C(=O)N[C@H](Cc4ccc5ccccc5c4)C(=O)N[C@H](CCCCNC(=O)CCCCCCC(=O)NCCCC[C@H](NC(=O)N[C@@H](CCC(=O)O)C(=O)O)C(=O)O)C(=O)O)c4ccc(S(=O)(=O)[O-])cc4C3(C)C)/CCC2)C(C)(C)c2cc(S(=O)(=O)O)ccc21 [[^99mTc]Tc-PSMA-HSG-Cy7-I, metal not drawn]",B50 MS,mouse serum,93 ± 16
same,internalization [% of reference],[5],17 ± 2 % of reference
same,logD,[3],-2.63
same,B50 HSA,[4],165 ± 21
same,B50 HS,human serum,246 ± 27
